Key:
Assay type in all cases: functional
Homo sapiens [1] = experiment: Induction of apoptosis in tumor of colorectal cancer patient at 200 mg/day, po administered for 14 days relative to control
Homo sapiens [2] = experiment: Reduction in aberrant crypt foci number in colorectal cancer patient at 4 g/day, po administered 30 days relative to control; design: scale not given: the % may be the effect or the level left
[3] = Antitumor activity against human TC118 cells xenografted in Swiss nu/nu mouse assessed as tumor growth inhibition at 150 mg/kg, ip qd for 5 days in presence of 5-FU; conditions: 120 h, read-out: TGI
CT26 = experiment: Antitumor activity against mouse CT26 cells implanted in BALB/c mouse at 1 mg/kg, po qd administered through oral gavage for 15 days in presence of cisplatin relative to control
Homo sapiens [4] = experiment: Reduction in tumor cell proliferation in colorectal cancer patient at 0.5 to 1 g/day, po administered 8 times per day for 8 days by Ki-67 staining-based microscopic method relative to control; design: scale not given: the % may be the effect or the level left
Homo sapiens [5] = experiment: Upregulation of cleaved caspase-3 levels in malignant hepatic tissue of cancer patient at 5 g/day, po administered for 10 to 21 days by immunohistochemistry relative to control

C[C@H]1[C@H](OC(=O)CCC(=O)O)O[C@@H]2O[C@@]3(C)CC[C@H]4[C@H](C)CC[C@@H]1[C@@]24OO3 [ARTESUNATE]
Activity (Homo sapiens [1]): 13%

COc1cc(/C=C/C(=O)CC(=O)/C=C/c2ccc(O)c(OC)c2)ccc1O [CURCUMIN]
Activity (Homo sapiens [2]): 40%

CC(C)=CCC/C(C)=C/CO [GERANIOL]
inhibition in vivo at 150 mg/kg [3]: ≤ 83%

O=C(/C=C/c1ccc(O)cc1)c1ccc(O)cc1O [ISOLIQUIRITIGENIN]
Activity (CT26): 79%

Oc1ccc(/C=C/c2cc(O)cc(O)c2)cc1 [RESVERATROL]
Activity (Homo sapiens [4]): 5%
Activity (Homo sapiens [5]): 39%

— ChEMBL document CHEMBL4145458, “Natural compounds and combination therapy in colorectal cancer treatment” (2018)
